The source of these data is patent US20230391786A1, “cGAS INHIBITORS” (Eli Lilly and Company, priority 2022, published 2023).

Structures can show the parent of a compound that is named as a salt. Bounds are passed on as bounds.

In one experiment the target is recombinant human cGAS (Homo sapiens (Human), UniProt Q8N884). As to the kind of experiment: In vitro inhibition assay of cGAS activity (cGAMP production, RapidFire mass spectrometry). In kind it is biochemical. As to conditions: 10 nM recombinant human cGAS, 60 nM 75-bp dsDNA, ATP, GTP, room temperature 3 hours, read-out: IC50 (μM), In vitro inhibition assay for Compounds 95-348. Summed up:
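Full-length His6-tagged human cGAS (10 nM, E. coli-expressed) was incubated 3 h at room temperature with 60 nM 75-bp dsDNA, ATP, 50 μM GTP and compound at pH 7.5 with 5 mM MgCl2. cGAMP formation was measured by RapidFire mass spectrometry, and IC50 was taken from a 4-parameter logistic fit.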

Experiment [1] relates to cGAS activity in THP1 cells (IFNb as marker). As to the kind of experiment: Cellular assay to measure cGAS activity (IFNb production in PMA-differentiated THP1 cells stimulated by RDG-Adenovirus-GFP). Format: cell-based, human. The note with it: Homo sapiens, THP-1, THP1 cells, PMA differentiated, RDG-Adenovirus-GFP 1000 MOI, IFNb AlphaLISA, overnight incubation; read-out: IC50 (μM), Cellular assay for Compounds 95-348. Summed up:
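PMA-differentiated THP1 cells were infected with RDG-Adenovirus-GFP at 1000 MOI for 4 h, then exposed overnight to test compounds. IFNb in the supernatant was quantified by AlphaLISA as a cGAS activity marker, and IC50 was fitted with a 4-parameter logistic equation.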

Sequence of recombinant human cGAS (Q8N884 whole entry): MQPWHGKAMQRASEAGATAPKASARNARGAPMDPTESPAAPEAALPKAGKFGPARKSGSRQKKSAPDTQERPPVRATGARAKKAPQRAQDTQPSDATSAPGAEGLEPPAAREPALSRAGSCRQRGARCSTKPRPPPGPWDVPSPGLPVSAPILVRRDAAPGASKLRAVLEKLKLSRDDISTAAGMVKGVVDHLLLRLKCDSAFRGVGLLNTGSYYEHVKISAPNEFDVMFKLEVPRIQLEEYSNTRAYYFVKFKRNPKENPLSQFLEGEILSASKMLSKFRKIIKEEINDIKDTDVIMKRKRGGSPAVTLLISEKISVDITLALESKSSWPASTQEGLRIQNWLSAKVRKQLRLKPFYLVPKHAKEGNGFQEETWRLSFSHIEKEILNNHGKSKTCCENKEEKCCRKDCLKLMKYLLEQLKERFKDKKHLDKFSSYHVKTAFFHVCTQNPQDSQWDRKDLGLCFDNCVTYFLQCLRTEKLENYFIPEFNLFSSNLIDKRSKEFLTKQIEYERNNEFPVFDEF

As to `CC(=O)N1CCn2c(c(-c3cn[nH]c3)c3c(NCCCO)cc(Cl)c(Cl)c32)C1` [Example 253, 1-[6,7-Dichloro-9-(3-hydroxypropylamino)-10-(1H-pyrazol-4-yl)-3,4-dihydro-1H-pyrazino[1,2-a]indol-2-yl]ethanone], the IC50 on recombinant human cGAS was determined as 0.014 µM; in experiment [1] it was 0.509 µM.
The like results for `CC(=O)N1CCn2c(c(-c3cn[nH]c3)c3c(NCC#N)cc(Cl)c(Cl)c32)C1` [Example 254, 2-[[2-Acetyl-6,7-dichloro-10-(1H-pyrazol-4-yl)-3,4-dihydro-1H-pyrazino[1,2-a]indol-9-yl]amino]acetonitrile] were, in that order, 0.03 µM and 0.938 µM.
Regarding `CCNc1cc(Cl)c(Cl)c2c1c(-c1cn[nH]c1)c1n2CCN(C(C)=O)C1` [Example 255, 1-(6,7-dichloro-9-(ethylamino)-10-(1H-pyrazol-4-yl)-3,4-dihydropyrazino[1,2-a]indol-2(1H)-yl)ethan-1-one hydrochloride], the results for the IC50 (at recombinant human cGAS; in experiment [1]) were 0.0326 µM and 2.09 µM, respectively.
The like results for `CC(=O)N1CCn2c(c(-c3cn[nH]c3)c3c(NC(=O)C(F)(F)F)cc(Cl)c(Cl)c32)C1` [Example 256, N-[2-Acetyl-6,7-dichloro-10-(1H-pyrazol-4-yl)-3,4-dihydro-1H-pyrazino[1,2-a]indol-9-yl]-2,2,2-trifluoro-acetamide] were, in that order, 0.0386 µM and 4.8 µM.
The like results for `O=C(CO)Nc1nnc(-c2[nH]c3c(Cl)c(Cl)ccc3c2-c2cn[nH]c2)o1` [Example 257, N-[5-[6,7-Dichloro-3-(1H-pyrazol-4-yl)-1H-indol-2-yl]-1,3,4-oxadiazol-2-yl]-2-hydroxy-acetamide] were, in that order, 0.0235 µM and > 10 µM.
Regarding `O=C(O)[C@@H]1CCCN1C(=O)c1[nH]c2c(Cl)c(Cl)ccc2c1-c1cn[nH]c1` [Example 258, (2 S)-1-[6,7-Dichloro-3-(1H-pyrazol-4-yl)-1H-indole-2-carbonyl]pyrrolidine-2-carb oxylic acid], the IC50 at recombinant human cGAS is 0.0757 µM; in experiment [1], > 10 µM.
The like results for `CC(=O)N1CCn2c(c(-c3cn[nH]c3)c3c(NC(=O)C(F)F)cc(Cl)c(Cl)c32)C1` [Example 263, N-[2-Acetyl-6,7-dichloro-10-(1H-pyrazol-4-yl)-3,4-dihydro-1H-pyrazino[1,2-a]indol-9-yl]-2,2-difluoro-acetamide] were, in that order, 0.0173 µM and 0.509 µM.
Turning to `O=C(Cc1ccn[nH]1)N1CCn2c(c(-c3cn[nH]c3)c3ccc(Cl)c(Cl)c32)C1` [Example 266, 1-[6,7-Dichloro-10-(1H-pyrazol-4-yl)-3,4-dihydro-1H-pyrazino[1,2-a]indol-2-yl]-2-(1H-pyrazol-5-yl)ethanone], the figures for the IC50 (on recombinant human cGAS; in experiment [1]) were 0.0401 µM and 9.93 µM, respectively.
The like results for `O=C(Cc1cnccn1)N1CCn2c(c(-c3cn[nH]c3)c3ccc(Cl)c(Cl)c32)C1` [Example 267, 1-[6,7-Dichloro-10-(1H-pyrazol-4-yl)-3,4-dihydro-1H-pyrazino[1,2-a]indol-2-yl]-2-pyrazin-2-yl-ethanone] were, in that order, 0.0399 µM and 6.27 µM.
Regarding `CC(=O)N1CCn2c(c(-c3cn[nH]c3)c3c(OCC(N)=O)cc(Cl)c(Cl)c32)C1` [Example 268, 2-[[2-Acetyl-6,7-dichloro-10-(1H-pyrazol-4-yl)-3,4-dihydro-1H-pyrazino[1,2-a]indol-9-yl]oxy]acetamide], the 50% inhibitory concentration (IC50) came to 0.0385 µM on recombinant human cGAS and 5.87 µM in experiment [1].
The like results for `NC(=O)COc1cc(Cl)c(Cl)c2c1c(-c1cn[nH]c1)c1n2CCN(C(=O)CO)C1` [Example 269, 2-[[6,7-Dichloro-2-(2-hydroxyacetyl)-10-(1H-pyrazol-4-yl)-3,4-dihydro-1H-pyrazino[1,2-a]indol-9-yl]oxy]acetamide] were, in that order, 0.0306 µM and > 10 µM.
With `O=C(Nc1cc(Cl)c(Cl)c2c1c(-c1cn[nH]c1)c1n2CCN(C(=O)CO)C1)C(F)F` [Example 272, N-[6,7-Dichloro-2-(2-hydroxyacetyl)-10-(1H-pyrazol-4-yl)-3,4-dihydro-1H-pyrazino[1,2-a]indol-9-yl]-2,2-difluoro-acetamide], the values for the IC50 (on recombinant human cGAS; in experiment [1]) were 0.0202 µM and 0.412 µM, respectively.
The like results for `O=C(Nc1cc(Cl)c(Cl)c2c1c(-c1cn[nH]c1)c1n2CCN(C(=O)[C@@H]2COCCO2)C1)C(F)F` [Example 273, N-[6,7-Dichloro-2-[(2 S)-1,4-dioxane-2-carbonyl]-10-(1H-pyrazol-4-yl)-3,4-dihydro-1H-pyrazino[1,2-a]indol-9-yl]-2,2-difluoro-acetamide] were, in that order, 0.0206 µM and 0.56 µM.
Consider `O=C(Nc1cc(Cl)c(Cl)c2c1c(-c1cn[nH]c1)c1n2CCN(C(=O)CN2CCOC2=O)C1)C(F)F` [Example 274, N-[6,7-Dichloro-2-[2-(2-oxooxazolidin-3-yl)acetyl]-10-(1H-pyrazol-4-yl)-3,4-dihydro-1H-pyrazino[1,2-a]indol-9-yl]-2,2-difluoro-acetamide], for which the IC50 on recombinant human cGAS was found to be 0.023 µM; in experiment [1] it was 3.55 µM.
Regarding `CN(C)C(=O)CCC(=O)N1CCn2c(c(-c3cn[nH]c3)c3c(NC(=O)C(F)F)cc(Cl)c(Cl)c32)C1` [Example 275, 4-[6,7-Dichloro-9-[(2,2-difluoroacetyl)amino]-10-(1H-pyrazol-4-yl)-3,4-dihydro-1H-pyrazino[1,2-a]indol-2-yl]-N,N-dimethyl-4-oxo-butanamide], the figures for the IC50 (on recombinant human cGAS; in experiment [1]) were 0.0284 µM and 4.01 µM, respectively.
As for `O=C1CC(CC(=O)N2CCn3c(c(-c4cn[nH]c4)c4c(NC(=O)C(F)F)cc(Cl)c(Cl)c43)C2)CCN1` (centres unmarked) [Example 276, N-[6,7-Dichloro-2-[2-(2-oxo-4-piperidyl)acetyl]-10-(1H-pyrazol-4-yl)-3,4-dihydro-1H-pyrazino[1,2-a]indol-9-yl]-2,2-difluoro-acetamide], the figures for the IC50 (on recombinant human cGAS; in experiment [1]) were 0.0405 µM and > 10 µM, respectively.
Regarding `O=C(Nc1cc(Cl)c(Cl)c2c1c(-c1cn[nH]c1)c1n2CCN(C(=O)Cc2cnccn2)C1)C(F)F` [Example 277, N-[6,7-Dichloro-2-(2-pyrazin-2-ylacetyl)-10-(1H-pyrazol-4-yl)-3,4-dihydro-1H-pyrazino[1,2-a]indol-9-yl]-2,2-difluoro-acetamide], the IC50 on recombinant human cGAS was found to be 0.0445 µM; in experiment [1], 1.58 µM.
For `OC1Cc2c(-c3cn[nH]c3)c3ccc(Cl)c(Cl)c3n2C1` (centres unmarked) [Example 278, 5,6-Dichloro-9-(1H-pyrazol-4-yl)-2,3-dihydro-1H-pyrrolo[1,2-a]indol-2-ol], the IC50 at recombinant human cGAS stood at 0.0391 µM; in experiment [1], 2.19 µM.
The like results for `COCC(=O)N1CCn2c(c(-c3cn[nH]c3)c3c(OCC#N)cc(Cl)c(Cl)c32)C1` [Example 279, 2-((6,7-Dichloro-2-(2-methoxyacetyl)-10-(1H-pyrazol-4-yl)-1,2,3,4-tetrahydropyrazino[1,2-a]indol-9-yl)oxy)acetonitrile] were, in that order, 0.0072 µM and 0.74 µM.
The like results for `CC(=O)N1CCn2c(c(-c3cn[nH]c3)c3c(OCC#N)cc(Cl)c(Cl)c32)C1` [Example 280, 2-((2-Acetyl-6,7-dichloro-10-(1H-pyrazol-4-yl)-1,2,3,4-tetrahydropyrazino[1,2-a]indol-9-yl)oxy)acetonitrile] were, in that order, 0.0087 µM and 0.872 µM.
The like results for `CN1CCO[C@@H](C(=O)N2CCn3c(c(-c4cn[nH]c4)c4c(OCC#N)cc(Cl)c(Cl)c43)C2)C1` [Example 281, (R)-2-((6,7-Dichloro-2-(4-methylmorpholine-2-carbonyl)-10-(1H-pyrazol-4-yl)-1,2,3,4-tetrahydropyrazino[1,2-a]indol-9-yl)oxy)acetonitrile] were, in that order, 0.0089 µM and 1 µM.
For `Cc1nc(C(=O)N2CCn3c(c(-c4cn[nH]c4)c4c(OCC#N)cc(Cl)c(Cl)c43)C2)no1` [Example 282, 2-((6,7-Dichloro-2-(5-methyl-1,2,4-oxadiazole-3-carbonyl)-10-(1H-pyrazol-4-yl)-1,2,3,4-tetrahydropyrazino[1,2-a]indol-9-yl)oxy)acetonitrile], the IC50 turned out to be 0.00896 µM on recombinant human cGAS and 2.99 µM in experiment [1].
On to `Cn1cnc(C(=O)N2CCn3c(c(-c4cn[nH]c4)c4c(OCC#N)cc(Cl)c(Cl)c43)C2)n1` [Example 283, 2-((6,7-Dichloro-2-(1-methyl-1H-1,2,4-triazole-3-carbonyl)-10-(1H-pyrazol-4-yl)-1,2,3,4-tetrahydropyrazino[1,2-a]indol-9-yl)oxy)acetonitrile], for which the IC50 on recombinant human cGAS was found to be 0.0106 µM; in experiment [1] it was 4.27 µM.
The like results for `N#CCOc1cc(Cl)c(Cl)c2c1c(-c1cn[nH]c1)c1n2CCN(C(=O)CN2CCOC2=O)C1` [Example 284, 2-((6,7-Dichloro-2-(2-(2-oxooxazolidin-3-yl)acetyl)-10-(1H-pyrazol-4-yl)-1,2,3,4-tetrahydropyrazino[1,2-a]indol-9-yl)oxy)acetonitrile] were, in that order, 0.0124 µM and 9.75 µM.
Consider `N#CCOc1cc(Cl)c(Cl)c2c1c(-c1cn[nH]c1)c1n2CCN(C(=O)[C@@H]2COCCO2)C1` [Example 285, (S)-2-((6,7-Dichloro-2-(1,4-dioxane-2-carbonyl)-10-(1H-pyrazol-4-yl)-1,2,3,4-tetrahydropyrazino[1,2-a]indol-9-yl)oxy)acetonitrile], for which the IC50 at recombinant human cGAS turned out to be 0.0126 µM; in experiment [1], 1.19 µM.
